Experimental data from publication PMC8779255, “Determining the Anticancer Activity of Sphingosine Kinase Inhibitors Containing Heteroatoms in Their Tail Structure” (Pharmaceutics, 2022).

Experiments:
[1] = target: CYP2C19 (Homo sapiens, UniProt P33261); test: Inhibition of CYP enzymes activity, human liver microsomes; conditions: human liver microsomes 0.25 mg/mL, 10 μM, S-mephenytoin substrate
Procedure: (§4) By simultaneously analyzing metabolites, the ability of the six compounds to inhibit drug metabolism enzymes was evaluated.
(§5) Metabolites of each CYP coenzyme indicator drug generated through the above reaction were analyzed using the Shimadzu Nexera XR system and TSQ vantage (Thermo). The HPLC column was a Kinetex C18 column (2.1 × 100 mm^2, 2.6 μm particle size; Phenomenex, Torrance, CA, USA), and the mobile phase was distilled water (A) containing 0.1% formic acid and acetonitrile (B) containing 0.1% formic acid. […] The generated metabolites were quantified using MRM (Multiple Reaction Monitoring) quantification modes, and data were analyzed using Xcalibur (version 1.6.1).

[2] = tested on: sphingosine in HCT116 cells; test: Sphingosine ELISA of cell lysate; format: cell-based, human; conditions: 24 h, vs nontreated control
Procedure: The cellular levels of S1P, sphingosine, and ceramide were detected using an ELISA assay kit (MyBioSource, Inc., San Diego, CA, USA) according to the manufacturer’s instruction. For S1P ELISA, 100 µL cell lysates or standards were added in pre-coated ELISA wells, incubated for 90 min at 37 °C, and treated with 1x biotinylated anti S1P antibody for 1 h. Following treatment of HRP conjugated secondary antibody, the substrate was added and allowed to change the color for 15 min; then, the stop solution was added and absorbance was measured at 450 nm using a Multiskan GO (Thermo Scientific, Waltham, MA, USA) microplate spectrophotometer. […] A stop solution (50 µL) was added to each well, and optical density was measured at 450 nm using a microplate reader. […] After incubation, 50 µL substrate A and B was added to the plate and incubated at 37 °C for 20 min; a stop solution (50 µL) was added to each well and optical density was determined at 450 nm using a microplate reader. The concentration of S1P, sphingosine, and ceramide were calculated as ng/mL using respective standard curves constructed by Skanlt microplate reader software 5.0 (Thermo Scientific, Waltham, MA, USA).

[3] = target: T1, CYP3A4 (Homo sapiens, UniProt P08684); test: Inhibition of CYP enzymes activity, human liver microsomes; format: in vitro ADME; conditions: human liver microsomes 0.25 mg/mL, 10 μM, midazolam substrate
T1 construct: Human liver microsomes (0.25 mg/mL); from tissue; host or cells: human liver microsomes
T1 sequence (P08684 whole entry): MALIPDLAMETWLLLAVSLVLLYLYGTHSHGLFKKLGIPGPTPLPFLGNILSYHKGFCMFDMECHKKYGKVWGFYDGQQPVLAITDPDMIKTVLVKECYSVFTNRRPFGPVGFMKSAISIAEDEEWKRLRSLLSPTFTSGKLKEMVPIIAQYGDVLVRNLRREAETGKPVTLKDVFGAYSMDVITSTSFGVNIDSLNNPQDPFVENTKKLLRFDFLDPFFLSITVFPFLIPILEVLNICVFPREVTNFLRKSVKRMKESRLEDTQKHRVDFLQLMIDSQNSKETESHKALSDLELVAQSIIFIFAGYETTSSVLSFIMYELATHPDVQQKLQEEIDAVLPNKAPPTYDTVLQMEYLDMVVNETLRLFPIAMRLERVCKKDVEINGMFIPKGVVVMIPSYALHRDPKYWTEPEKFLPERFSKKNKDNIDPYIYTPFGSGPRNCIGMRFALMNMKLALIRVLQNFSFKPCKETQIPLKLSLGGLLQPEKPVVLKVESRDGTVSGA
Procedure: as §4, §5

[4] = tested on: HCT116 cells; test: Mitochondrial outer membrane potential (MOMP) by JC-10 staining; format: cell-based, human; conditions: HCT116, 10 and 20 µM, 24 h, vs nontreated control
Procedure: (§1) To access the mechanism of cell death, mitochondrial outer membrane potential (MOMP) was measured using JC-10 cationic dye. HT29 and HCT116 cells (2.5 × 10^5 cells/well) were seeded in 12-well plates and treated with a test compound for 24 h, collected in 1.5 mL microtubes using trypsin-EDTA, washed with 1× cold PBS, and stained with JC-10 dye prepared in HBSS solution (0.14 M NaCl, 0.005 M KCl, 0.001 M CaCl2, 0.005 M MgSO4. 7H2O, 0.0004 M […], 0.0003 M Na2HPO4-2H2O, 0.0004 M KH2PO4, 0.006 M D-glucose, 0.004 M NaHCO3, 0.002 M HEPES, and 0.02% Pluronic® F-127) for 30 min. Samples were analyzed using MACSQuanta Analyzer 10. Cells with green and red fluorescence were plotted in a dot plot; the ratio of red to green fluorescence was calculated using MACSQuantify^TM version 2.8 software and presented as MOMP of the cells. The experiment was repeated three times (n = 6).

[5] = tested on: HT29 cells; test: as above; format: cell-based, human; conditions: HT29, 10 and 20 µM, 24 h, vs nontreated control
Procedure: as §1

[6] = tested on: HCT116 cells; test: Annexin V-FITC/PI staining, flow cytometry; format: cell-based, human; conditions: HCT116, 10 and/or 20 µM, 24 h
Procedure: (§2) After treating HT29 and HCT116 cells with compounds 10, 11, 13 and FTY720 according to the manufacturer’s instruction, the annexin V and PI staining technique was employed to determine apoptosis in the cells. Briefly, cells (2.5 × 10^5 cells/well) were seeded in 12-well plates and treated with 10 and/or 20 µM of compounds for 24 h. Cells were collected using trypsin-EDTA and stained with annexin V-FITC dye for 15 min at room temperature, followed by PI staining for 20 min and analyzed by flow cytometer (MACSQuant Analyzer 10; Miltenyi Biotec, Bergisch Gladbach, Germany). The data was analyzed using MACSQuantify^TM version 2.8 software (Miltenyi Biotec, Bergisch Gladbach, Germany) and presented as early apoptosis, late apoptosis, or combined apoptosis percentage. Each experiment was repeated three times independently (n = 6).

[7] = tested on: HT29 cells; test: Annexin V-FITC/PI staining, flow cytometry; format: cell-based, human; conditions: HT29, 10 and/or 20 µM, 24 h
Procedure: as §2

[8] = tested on: HCT116 cells; test: Clonogenic (colony formation) assay; format: cell-based, human; conditions: HCT116, 5, 10 and 20 μM
Procedure: (§3) Cell proliferation was assayed by in vitro clonogenic assay. To perform the clonogenic assay, HT29 and HCT116 cells (1000 cells/well) were grown in 6-well plates for 24 h. Cells were treated with compound 10 and FTY720 in different concentrations for 12 h and changed fresh medium. Colonies were allowed to grow for two weeks by changing to a fresh medium every 3 days. Colonies were stained with 0.1% crystal violet prepared in 25% […] for 30 min and washed with running water and photographed with Canon Rebel T6i (Tokyo, Kanto, Japan). Colonies were counted using Image J software version 1.53i, National Institutes of Health, Bethesda, MD, USA). Plating efficiency (PE) and surviving fraction (SF) was calculated using the following formula. (1) [Plating efficiency (PE)]=Number of colony count in control/Number of cell seeded [Surviving Fraction]=Number of colony count /Number of cell seeded […]

[9] = tested on: HT29 cells; test: Clonogenic (colony formation) assay; format: cell-based, human; conditions: HT29, 5, 10 and 20 μM
Procedure: as §3

Chain of CYP2C19 (P33261 whole entry): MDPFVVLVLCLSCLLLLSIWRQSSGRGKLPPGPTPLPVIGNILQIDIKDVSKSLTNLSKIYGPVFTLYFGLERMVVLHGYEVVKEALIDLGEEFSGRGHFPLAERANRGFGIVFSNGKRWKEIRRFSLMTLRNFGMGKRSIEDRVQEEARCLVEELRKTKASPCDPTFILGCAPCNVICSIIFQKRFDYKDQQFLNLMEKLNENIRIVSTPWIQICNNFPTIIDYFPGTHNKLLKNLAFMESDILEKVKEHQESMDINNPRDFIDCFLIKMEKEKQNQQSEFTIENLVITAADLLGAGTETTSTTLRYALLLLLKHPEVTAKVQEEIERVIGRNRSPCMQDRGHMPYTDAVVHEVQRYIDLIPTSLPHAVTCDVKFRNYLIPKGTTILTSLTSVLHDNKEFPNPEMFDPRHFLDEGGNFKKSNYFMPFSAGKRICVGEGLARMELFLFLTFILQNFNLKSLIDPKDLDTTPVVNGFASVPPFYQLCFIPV

With `CCCCCCCOc1ccc(CCN2CCN(CCO)CC2)cc1` [Compound 10, 2-(4-(4-(Heptyloxy)phenethyl)piperazin-1-yl)ethanol] the “CYP2C19 activity (% of control activity)” value [1] was 96.5%, the sphingosine level increase ([2]; HCT116, 10 µM) was 1.42 fold and the sphingosine level increase ([2]; HCT116, 20 µM) was 1.74 fold. For the same compound, the “CYP3A4 activity (% of control activity)” value [3] was over 100%, the “JC-10 dye red to green fluorescence ratio (MOMP)” value [4] was “significantly reduced” and the “JC-10 dye red to green fluorescence ratio (MOMP)” value [5] was “significantly reduced”. For the same compound, the “apoptosis (annexin V assay)” value [6] was “induced apoptosis”, the “apoptosis (annexin V assay)” value [7] was “induced apoptosis” and the colony formation capacity [8] was “effectively inhibits the colony formation capacity”. The colony formation capacity [9] was “effectively inhibits the colony formation capacity”.
